# Values of other authors in publication PMC3691235, “Discovery of a Novel Dual Fungal CYP51/Human 5-Lipoxygenase Inhibitor: Implications for Anti-Fungal Therapy” (PLoS ONE, 2013).
# Molecular target: T1, Homo sapiens CYP51 (HsCYP51) (Homo sapiens, UniProt Q16850)
# T1 construct: made in house; host or cells: E. coli
# T1 sequence (Q16850 1-509): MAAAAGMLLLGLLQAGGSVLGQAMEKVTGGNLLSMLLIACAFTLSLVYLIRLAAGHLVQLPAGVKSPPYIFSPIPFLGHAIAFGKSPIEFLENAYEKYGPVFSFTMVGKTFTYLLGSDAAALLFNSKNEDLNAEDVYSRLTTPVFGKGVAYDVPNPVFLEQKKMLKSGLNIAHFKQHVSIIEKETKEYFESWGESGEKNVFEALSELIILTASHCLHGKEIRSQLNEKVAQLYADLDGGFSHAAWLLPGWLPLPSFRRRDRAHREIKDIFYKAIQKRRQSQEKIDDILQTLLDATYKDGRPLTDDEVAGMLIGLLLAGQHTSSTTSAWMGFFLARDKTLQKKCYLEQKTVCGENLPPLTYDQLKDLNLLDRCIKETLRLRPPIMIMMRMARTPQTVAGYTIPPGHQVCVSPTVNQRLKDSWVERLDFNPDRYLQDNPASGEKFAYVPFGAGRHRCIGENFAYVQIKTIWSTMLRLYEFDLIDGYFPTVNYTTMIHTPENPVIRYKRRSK
# Design: method as in PMID 20149798
# Conditions: ref [40]; read-out: Kd with HsCYP51, previously reported; cited from earlier work
structure (smiles),measurement,value
"CC(=O)N1CCN(c2ccc(OCC3COC(Cn4ccnc4)(c4ccc(Cl)cc4Cl)O3)cc2)CC1 (stereo not shown) [ketoconazole, reference compound]",Kd,~180 nM
